For experiment [1], the system named is xenografted human PC3 prostate cancer cells. The following applies: treatment with TH-1177; Haverstick et al. 2000; cited from earlier work.
The subject of experiment [2] is PC3 human prostate cancer cells. As to the kind of experiment: Proliferation of PC3 prostate cancer cells (CellTiter 96). The experiment is classed as cell-based. Conditions: read-out: IC50 for inhibiting proliferation of PC3 prostate cancer cells. On the procedure: FIG. 5, TH-1177 and TH-1211 are stereoisomers about one of two chiral centers and have different potencies at inhibiting the proliferation of PC3 prostate cancer cells. Panel A: The structures of TH-1177 and TH-1211 were determined as described in Materials and Methods. The diastereomers are racemic at the benzhydrol center (solid arrows) and enantiomeric at the proline center (open arrows) with TH-1177 having the S configuration and TH-1211 having the R. Panel B: The proliferation of PC3 human prostate cancer cells was determined as described in Materials and Methods.
(§1) LNCaP cells at 2.5×10^4 cells/well or PC-3 cells at 5×10^4 cells/well, both in a final volume of 100 IJI, were plated in triplicate in standard flat-bottomed 96-well tissue culture plates in the presence of drug or vehicle (DMSO). Unless otherwise indicated, cells were grown for 48 h at 37° C. in a CO2 incubator. Relative cell growth was determined with the CellTiter 96 aqueous cell proliferation assay (Promega, Madison, Wis.) as described by the manufacturer using an automated plate reader. Results were calculated in a blinded fashion and are the means of triplicate determinations.

In the next experiment the test system is Jurkat cells. As to the kind of experiment: Proliferation of Jurkat cells with or without ionomycin. In kind it is cell-based, human. Conditions: for IC50: Homo sapiens, Jurkat cells, 48 hrs. On the procedure:
FIG. 2. The Ca2+ ionophore ionomycin overcomes the inhibition of Ca2+ entry into and proliferation of Jurkat cells produced by TH-1177. Panel A. Ca2+ entry into Jurkat cells was determined as described in Materials and Methods. Ionomycin at the indicated concentrations was added at 30 s and the mitogenic monoclonal antibody (OKT3 was added at a concentration of 1 ug/ml at 60 s. Either EGTA at 2.5 mM or TH-1177 at the indicated concentrations was added at 150 s. The percentage inhibition was determined as described in Material and Methods. Panel B. Jurkat cells were grown for 48 hrs in the presence (open symbols) or absence (closed symbols) of 30 nM ionomycin and the indicated concentrations of TH-1177. Percent control growth was determined as described in Materials and Methods.
as §1

This is an account of results in US20120264804A1, “T TYPE CALCIUM CHANNEL BLOCKERS AND THE TREATMENT OF DISEASES” (University of Virginia Patent Foundation, priority 2004, published 2012).

Each structure is given as a SMILES string. Where two headings read alike, the source gives them in different places.

For the compound `COc1ccc(CCN2CCCC2COC(c2ccccc2)c2ccc(Cl)cc2)cc1` (stereo not drawn) [TH-1177], the “lifespan of mice bearing xenografted PC3 cells” value in experiment [1] was “significantly extended the lifespan”. In addition, the IC50 in experiment [2] amounted to 14 µM; with Jurkat cells (in the presence of 30 uM ionomycin, read-out: IC50 of TH-1177 for inhibition of proliferation, in the presence of ionomycin), 4.6 µM; in the experiment on Jurkat cells (ionomycin absent, read-out: IC50 of TH-1177 for inhibition of proliferation, in the absence of ionomycin), 17.8 µM.

`COc1ccc(CCN2CCCC2COC(c2ccccc2)c2ccc(Cl)cc2)cc1` (stereo not drawn) [TH-1211]: the IC50 in experiment [2] is 42 µM.

On to `C[C@H](CCC(=O)O)C[C@H](C)C[C@H](C)C(=O)/C=C(\O)[C@H](C)C[C@H](C)C/C=C/[C@@H](C)[C@@H](O)[C@@H](C)[C@@H](O)C[C@@H]1CC[C@@](C)([C@H]2CC[C@@](C)([C@@H](C)O)O2)O1` [ionomycin, reference compound], for which the “effect on proliferation of ionomycin alone” value in the experiment on Jurkat cells (30 nM ionomycin alone) is “no effect”.
